Data reported in patent US12303570B2, “Compositions and methods for assessing eye vasculature” (MediBeacon Inc., priority 2015, dated 2025).
Counter-ions that a name gives are not always drawn.

Columns and labels:
[1] = UV/vis absorption and fluorescence of pyrazine dyes; format: physicochemical
[2] = cited from earlier work
serum protein = details: immediately upon intra-venous injection; cited from earlier work
[3] = 100 μM (Example 4 prints 100 μm)

Compound	UV/vis λabs ([1]; 100 μM in PBS) [nm]	Fluorescence λem ([1]; 100 nM) [nm]	Fluorescence λex ([1]; 100 nM) [nm]	other results
COCCN(CCOC)C(=O)c1nc(N)c(C(=O)N(CCOC)CCOC)nc1N [Example 4, 3,6-diamino-N^2,N^2,N^5,N^5-tetrakis(2-methoxyethyl) pyrazine-2,5-dicarboxamide]	394	–	–	Fluorescence λex [1, 3]: 394 nm; Fluorescence λem ([1]; 100 μm): 550 nm
COCCOCCOCCOCCOCCOCCOCCOCCC(=O)NCCNC(=O)c1nc(N)c(C(=O)NCCNC(=O)CCOCCOCCOCCOCCOCCOCCOCCOC)nc1N [Example 10, 3,6-diamino-N^2,N^5-bis(26-oxo-2,5,8,11,14,17,20,23-octaoxa-27-azanonacosan-29-yl)pyrazine-2,5-dicarboxamide]	438	560	438	–
NCCNC(=O)c1nc(N)c(C(=O)NCCN)nc1N [Example 7, 3,6-diamino-N^2,N^5-bis(2-aminoethyl)pyrazine-2,5-dicarboxamide Bis TFA Salt]	435	562	449	–
O=C1OC2(c3ccc(O)cc3Oc3cc(O)ccc32)c2ccccc21 [Sodium fluorescein]	–	–	–	lipid solubility [2]: relatively high; converted to non-fluorescent serum protein bound molecule (serum protein): 93%
Nc1nc(C(=O)N[C@@H](CO)C(=O)O)c(N)nc1C(=O)N[C@@H](CO)C(=O)O [Example 3, 3,6-diamino-N^2,N^5-bis(L-serine)-pyrazine-2,5-dicarboxamide]	–	–	–	light absorption maximum [1]: 445 nm; light emission maximum [1]: 560 nm
COCCN(CCOC)c1nc(C(=O)N[C@H](CC(=O)O)C(=O)O)c(N2CCOCC2)nc1C#N [Example 13, (R)-2-(6-(bis(2-methoxyethyl)amino)-5-cyano-3-morpholinopyrazine-2-carboxamido)succinic Acid]	438	–	–	Fluorescence λem ([1]; 100 μM): 570 nm; Fluorescence λex [1, 3]: 449 nm
COCCN(CCOC)C(=O)c1nc(N(CCOC)CCOC)c(C(=O)N(CCOC)CCOC)nc1N(CCOC)CCOC [Example 6]	434	–	–	Fluorescence λem ([1]; concentration not given): 559 nm; Fluorescence λex ([1]; concentration not given): 449 nm
COCCOCCOCCOCCC(=O)NCCNC(=O)c1nc(N)c(C(=O)NCCNC(=O)CCOCCOCCOCCOC)nc1N [Example 9, 3,6-diamino-N^2,N^5-bis(14-oxo-2,5,8,11-tetraoxa-15-azaheptadecan-17-yl) pyrazine-2,5-dicarboxamide]	437	559	437	–
O=C1OC2(c3ccc(O)cc3Oc3cc(O[C@@H]4O[C@H](C(=O)O)[C@@H](O)[C@H](O)[C@H]4O)ccc32)c2ccccc21 (stereo partly shown) [fluorescein glucuronide]	–	–	–	fluorescent yield relative to fluorescein ([2]; metabolite versus parent): 5%
COCCOCCOCCOCCOCCOCCOCCOCCOCCOCCOCCOCCC(=O)NCCNC(=O)c1nc(N)c(C(=O)NCCNC(=O)CCOCCOCCOCCOCCOCCOCCOCCOCCOCCOCCOCCOC)nc1N [Example 11, 3,6-diamino-N^2,N^5-bis(38-oxo-2,5,8,11,14,17,20,23,26,29,32,35-dodecaoxa-39-azahentetracontan-41-y) pyrazine-2,5-dicarboxamide]	449	559	449	–
Nc1nc(C(=O)NCC(O)CO)c(N)nc1C(=O)NCC(O)CO (stereo not shown) [Example 5, 3,6-diamino-N^2,N^5-bis (2,3-dihydroxypropyl) pyrazine-2,5-dicarboxamide]	–	–	–	UV/vis λabs ([1]; 100 μM in H2O): 432 nm; Fluorescence λem ([1]; concentration not given): 558 nm; Fluorescence λex ([1]; concentration not given): 432 nm
Nc1nc(C(=O)N[C@H](CC(=O)O)C(=O)O)c(N)nc1C(=O)N[C@H](CC(=O)O)C(=O)O [Example 8, 3,6-diamino-N^2,N^5-bis(D-aspartate)-pyrazine-2,5-dicarboxamide]	433	558	449	–
Nc1nc(C(=O)N[C@H](CO)C(=O)O)c(N)nc1C(=O)N[C@H](CO)C(=O)O [Example 2, 3,6-diamino-N^2,N^5-bis(D-serine)-pyrazine-2,5-dicarboxamide]	434	–	–	light absorption maximum [1]: 445 nm; light emission maximum [1]: 560 nm; Fluorescence λem ([1]; concentration not given): 559 nm; Fluorescence λex ([1]; concentration not given): 449 nm
